These results are taken from patent US8110687B2, “Bicyclic compounds with kinase inhibitory activity” (Millennium Pharmaceuticals, Inc., priority 2005, dated 2012).

In this assay the test system is phospho-ERK formation (Raf kinase activity) in A375 cells. As to the kind of experiment: Phospho-ERK ELISA assay. Conditions: Homo sapiens, A-375, 3 h, 3 hours with inhibitor, read-out: IC50, inhibition of the formation of phospho-ERK. It counts as cell-based. On the procedure: Inhibition of Raf kinase activity in whole cell systems can be assessed by determining the decrease in phosphorylation of Raf kinase substrates. Any known Raf kinase substrate can be used to measure inhibition of Raf kinase activity in a whole cell system.
Medium was removed, and cells were incubated with Raf kinase inhibitors for 3 hours at 37° C. Medium was removed, and cells were fixed with 4% paraformaldehyde for 15 minutes at room temperature.
Methanol was added for 15 min. Cells were removed and blocked with 10% sheep serum and 1% BSA in PBS overnight at 4° C. Cells were incubated with anti-p44/42MAPK antibody (1:100, Cell Signaling Technologies, #9101L) (20 μL/well) for one hour at room temperature. After washing with PBS three times, cells were stained with anti-rabbit horseradish peroxidase-linked antibody from donkey (1:100, Amersham Bioscience #NA934V) for 1 hour at room temperature. Cells were washed three times with 0.5% Tween-20 in PBS and twice with PBS. 3,3′, 5,5′-Tetramethylbenzidine (TMB) liquid substrate system (Sigma, #T8665) (50 μL/well) was added, and cells were incubated for 30-45 minutes at room temperature. Optical density was read at 650 nm. Cells were then washed 3-5 times with PBS to remove color solution. Results were normalized for the protein content in each well using a BCA protein assay kit (Pierce).
A general note: In an ELISA, binding on a coated surface is turned into a signal by an enzyme label.
For orientation: IC50 means the point on the concentration scale where inhibition reaches its midpoint. `CNC(=O)c1cc(Oc2ccc3c(c2)CC(C(=O)Nc2ccc(CN)c(C(F)(F)F)c2)CC3)ccn1` (stereo not shown) [Compound I-28, 4-{[7-({[4-(aminomethyl)-3-(trifluoromethyl)phenyl]amino}carbonyl)-5,6,7,8-tetrahydronaphthalen-2-yl]oxy}-N-methylpyridine-2-carboxamide]: the IC50 is at most 25 µM. To `Nc1cc(Oc2ccc3ccc(C(=O)Nc4cc(OCCN5CCCC5)cc(C(F)(F)F)c4)cc3c2)ccn1` [Compound I-142, 7-[(2-aminopyridin-4-yl)oxy]-N-[3-(2-pyrrolidin-1-ylethoxy)-5-(trifluoromethyl)phenyl]-2-naphthamide] belongs at most 25 µM; to `O=C(Nc1cc(OCCN2CCCC2)cc(C(F)(F)F)c1)c1cnc2ccc(Oc3ccncc3)cc2c1` [Compound I-351, 6-(pyridin-4-yloxy)-N-[3-(2-pyrrolidin-1-ylethoxy)-5-(trifluoromethyl)phenyl]quinoline-3-carboxamide], at most 25 µM; to `CC(=O)NCc1cc(Oc2ccc3c(c2)CC(C(=O)Nc2cc(CN)cc(C(F)(F)F)c2)CC3)ccn1` (stereo not shown) [Compound I-203, 7-({2-[(acetylamino)methyl]pyridin-4-yl}oxy)-N-[3-(aminomethyl)-5-(trifluoromethyl)phenyl]-1,2,3,4-tetrahydronaphthalene-2-carboxamide], at most 25 µM. As for `O=C(Nc1ccc(Cl)c(C(F)(F)F)c1)c1ccc2ccc(Oc3ccnc(C4=NCCN4)c3)cc2n1` [Compound I-45, N-[4-chloro-3-(trifluoromethyl)phenyl]-7-{[2-(4,5-dihydro-1H-imidazol-2-yl)pyridin-4-yl]oxy}quinoline-2-carboxamide], the IC50 is at most 25 µM. To `CC(C)(C)c1cccc(NC(=O)c2cnc3ccc(Oc4ccncc4)cc3c2)c1` [Compound I-299, N-(3-tert-butylphenyl)-6-(pyridin-4-yloxy)quinoline-3-carboxamide] belongs at most 25 µM; to `N#Cc1ccc(NC(=O)c2ccc3ccc(Oc4ccnc(N)c4)cc3c2)cc1C(F)(F)F` [Compound I-158, 7-[(2-aminopyridin-4-yl)oxy]-N-[4-cyano-3-(trifluoromethyl)phenyl]-2-naphthamide], at most 25 µM. To `CC(C)(C)c1cccc(NC(=O)C2CCc3ccc(Oc4ccnc(C(=N)N5CCCC5)c4)cc3C2)c1` (stereo not shown) [Compound I-194, N-(3-tert-butylphenyl)-7-({2-[imino(pyrrolidin-1-yl)methyl]pyridin-4-yl}oxy)-1,2,3,4-tetraydronaphthalene-2-carboxamide] belongs at most 25 µM; to `NCc1cc(NC(=O)C2CCc3ccc(Oc4ccnc(N)c4)cc3C2)cc(C(F)(F)F)c1` (stereo not shown) [Compound I-271, N-[3-(aminomethyl)-5-(trifluoromethyl)phenyl]-7-[(2-aminopyridin-4-yl)oxy]-1,2,3,4-tetrahydronaphthalene-2-carboxamide], at most 25 µM; to `CNC(=O)c1cc(Oc2ccc3c(c2)C[C@H](C(=O)Nc2cc(CN)cc(C(F)(F)F)c2)CC3)ccn1` [Compound I-244, 4-{[(7R)-7-({[3-(aminomethyl)-5-(trifluoromethyl)phenyl]amino}carbonyl)-5,6,7,8-tetrahydronaphthalen-2-yl]oxy}-N-methylpyridine-2-carboxamide], at most 25 µM. To `CC(C)(C)c1cccc(NC(=O)C2COc3ccc(Oc4ccnc(C5=NCCN5)c4)cc3C2)c1` (stereo not shown) [Compound I-349, N-(3-tert-butylphenyl)-6-{[2-(4,5-dihydro-1H-imidazol-2-yl)pyridin-4-yl]oxy}chromane-3-carboxamide] belongs at most 25 µM; to `CC(=O)Nc1cc(Oc2ccc3c(c2)CC(C(=O)Nc2ccc(Cl)cc2)CC3)ccn1` (stereo not shown) [Compound I-303, 7-{[2-(acetylamino)pyridin-4-yl]oxy}-N-(4-chlorophenyl)-1,2,3,4-tetrahydronaphthalene-2-carboxamide], at most 25 µM; to `CNC(=O)c1cc(Oc2ccc3c(c2)CC(C(=O)Nc2ccc(CN)cc2)CC3)ccn1` (stereo not shown) [Compound I-42, 4-{[7-({[4-(aminomethyl)phenyl]amino}carbonyl)-5,6,7,8-tetrahydronaphthalen-2-yl]oxy}-N-methylpyridine-2-carboxamide], at most 25 µM.

As for `CNC(=O)c1cc(Oc2ccc3c(c2)CC(C(=O)Nc2cccc(C(C)(C)C)c2)CC3)ccn1` (stereo not shown) [Compound I-23, 4-[(7-{[(3-tert-butylphenyl)amino]carbonyl}-5,6,7,8-tetrahydronaphthalen-2-yl)oxy]-N-methylpyridine-2-carboxamide], the IC50 is at most 25 µM.

Regarding `N=C(N)c1cc(Oc2ccc3ccc(C(=O)Nc4ccc(CN)c(C(F)(F)F)c4)cc3c2)ccn1` [Compound I-381, 7-({2-[amino(imino)methyl]pyridin-4-yl}oxy)-N-[4-(aminomethyl)-3-(trifluoromethyl)phenyl]-2-naphthamide], the IC50 was at most 25 µM. As to `O=C(Nc1ccc(Cl)c(C(F)(F)F)c1)C1CCc2cccc(Oc3ccnc(C4=NCCN4)c3)c2C1` (stereo not shown) [Compound I-21, N-[4-chloro-3-(trifluoromethyl)phenyl]-8-{[2-(4,5-dihydro-1H-imidazol-2-yl)pyridin-4-yl]oxy}-1,2,3,4-tetrahydronaphthalene-2-carboxamide], the IC50 was at most 25 µM. To `CN1CCN(c2cc(Oc3ccc4c(c3)CC(C(=O)Nc3cccc(C(C)(C)C)c3)CC4)ccn2)CC1` (stereo not shown) [Compound I-415, N-(3-tert-butylphenyl)-7-{[2-(4-methylpiperazin-1-yl)pyridin-4-yl]oxy}-1,2,3,4-tetrahydronaphthalene-2-carboxamide] belongs at most 25 µM; to `NCc1cc(NC(=O)C2CCc3ccc(Oc4ccnc(-n5ccnc5)c4)cc3C2)cc(C(F)(F)F)c1` (stereo not shown) [Compound I-205, N-[3-(aminomethyl)-5-(trifluoromethyl)phenyl]-7-{[2-(1H-imidazol-1-yl)pyridin-4-yl]oxy}-1,2,3,4-tetrahydronaphthalene-2-carboxamide], at most 25 µM; to `Nc1cc(Oc2ccc3ccc(C(=O)Nc4ccc(Cl)c(C(F)(F)F)c4)cc3c2)ccn1` [Compound I-162, 7-[(2-aminopyridin-4-yl)oxy]-N-[4-chloro-3-(trifluoromethyl)phenyl]-2-naphthamide], at most 25 µM. To `NCc1cc(NC(=O)C2CCc3ccc(Oc4ccnc(-c5cnco5)c4)cc3C2)cc(C(F)(F)F)c1` (stereo not shown) [Compound I-210, N-[3-(aminomethyl)-5-(trifluoromethyl)phenyl]-7-{[2-(1,3-oxazol-5-yl)pyridin-4-yl]oxy}-1,2,3,4-tetrahydronaphthalene-2-carboxamide] belongs at most 25 µM; to `CCNC(=O)NCc1cc(NC(=O)C2CCc3ccc(Oc4ccnc(C(=O)NC)c4)cc3C2)cc(C(F)(F)F)c1` (stereo not shown) [Compound I-420, 4-{[7-({[3-({[(ethylamino)carbonyl]amino}methyl)-5-(trifluoromethyl)phenyl]amino}carbonyl)-5,6,7,8-tetrahydronaphthalen-2-yl]-oxy}-N-methylpyridine-2-carboxamide], at most 25 µM. To `CNC(=O)c1cc(Oc2ccc3ncc(C(=O)Nc4ccc(CN)c(C(F)(F)F)c4)cc3c2)ccn1` [Compound I-161, N-[4-(aminomethyl)-3-(trifluoromethyl)phenyl]-6-({2-[(methylamino)carbonyl]pyridin-4-yl}oxy)quinoline-3-carboxamide] belongs at most 25 µM.
